The text below walks through data of PMC6770510, “In Vitro Production and Identification of Angiotensin Converting Enzyme (ACE) Inhibitory Peptides Derived from Distilled Spent Grain Prolamin Isolate” (Foods, 2019).

Residues, ends and D or L forms follow the SMILES beside them.

For the assay, the target named is T1, angiotensin converting enzyme (ACE) (Homo sapiens, UniProt P12821).
T1 construct: purchased Dojindo Inc., Kumamoto, Japan ACE kit-WST
The experiment in a line: ACE inhibitory activity, colorimetric detection system (ACE kit-WST). The class given is biochemical. The conditions noted are these: synthetic peptides; mean ± SD, n = 3; read-out: IC50 (μM) for ACE of corresponding synthetic peptides. Here is the method:
The ACE inhibitory activity was determined following the method as previously described, using the colorimetric detection system (ACE kit-WST, Dojindo Inc., Kumamoto, Japan). The assay procedure was consistent with the technical manual provided by the assay kit. Briefly, 20 µL of sample solution was added to a sample well, and 20 µL of deionized water was added to blank 1 and blank 2 wells. 20 µL of substrate buffer was added to each well. 20 µL of deionized water was added to blank 2 well, while 20 µL of enzyme working solution was added to each sample and blank 1 wells. All wells containing above solutions were incubated at 37 °C for 1 h. Afterwards, 200 µL of the indicator working solution was added to each well with further incubation for 10 min. Then, the absorbance was recorded at 450 nm using a microplate reader (Cytation 3, BioTek Instruments, Inc., Winooski, VT, USA). The ACE inhibitory activity was calculated using the equation (1) ACE inhibitory activity (inhibition rate %) = Ablank1− Asample/Ablank1− Ablank2 × 100% where Ablank1 represented positive control (without ACE inhibition); Ablank2 was the absorbance of the reagent blank, while Asample was the absorbance of the sample. The concentration inducing 50% inhibition (IC50) of peptides and some samples were also determined with non-linear regression.

T1 sequence (P12821 30-1306, species assumed): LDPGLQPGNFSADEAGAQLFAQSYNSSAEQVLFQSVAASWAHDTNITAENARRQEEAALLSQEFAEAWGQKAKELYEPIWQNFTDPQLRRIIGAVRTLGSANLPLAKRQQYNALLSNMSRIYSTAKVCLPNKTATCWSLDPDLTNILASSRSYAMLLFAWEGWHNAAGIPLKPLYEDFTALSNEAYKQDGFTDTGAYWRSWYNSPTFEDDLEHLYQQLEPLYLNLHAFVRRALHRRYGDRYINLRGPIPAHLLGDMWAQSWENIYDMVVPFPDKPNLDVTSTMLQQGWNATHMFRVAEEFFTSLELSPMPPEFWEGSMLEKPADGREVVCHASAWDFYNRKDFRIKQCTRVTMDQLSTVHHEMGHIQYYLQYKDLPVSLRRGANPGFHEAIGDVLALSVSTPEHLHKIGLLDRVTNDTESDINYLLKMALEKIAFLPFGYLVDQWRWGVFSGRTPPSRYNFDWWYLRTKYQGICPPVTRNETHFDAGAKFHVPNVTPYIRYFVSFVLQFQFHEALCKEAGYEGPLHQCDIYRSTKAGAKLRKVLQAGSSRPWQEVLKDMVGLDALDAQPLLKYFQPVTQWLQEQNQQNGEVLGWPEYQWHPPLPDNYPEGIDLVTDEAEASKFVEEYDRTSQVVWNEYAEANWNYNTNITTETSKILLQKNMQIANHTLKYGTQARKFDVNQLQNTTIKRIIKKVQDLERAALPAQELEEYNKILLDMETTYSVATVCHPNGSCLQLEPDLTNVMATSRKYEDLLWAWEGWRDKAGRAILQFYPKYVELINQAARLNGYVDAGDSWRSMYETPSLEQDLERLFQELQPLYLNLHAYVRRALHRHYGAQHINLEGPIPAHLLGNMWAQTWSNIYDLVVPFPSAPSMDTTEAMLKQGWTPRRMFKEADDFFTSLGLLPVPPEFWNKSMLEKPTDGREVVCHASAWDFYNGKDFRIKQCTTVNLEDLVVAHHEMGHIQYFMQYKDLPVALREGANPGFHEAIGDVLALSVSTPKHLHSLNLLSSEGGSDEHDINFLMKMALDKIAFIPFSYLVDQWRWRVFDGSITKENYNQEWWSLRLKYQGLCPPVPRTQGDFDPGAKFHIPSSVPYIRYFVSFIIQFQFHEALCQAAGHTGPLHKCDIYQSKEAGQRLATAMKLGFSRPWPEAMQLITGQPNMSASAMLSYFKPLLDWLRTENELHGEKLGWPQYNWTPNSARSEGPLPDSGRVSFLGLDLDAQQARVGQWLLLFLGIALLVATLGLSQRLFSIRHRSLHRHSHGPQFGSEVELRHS

Consider `CC(C)C[C@H](NC(=O)[C@H](Cc1ccc(O)cc1)NC(=O)[C@H](C)N)C(=O)N[C@@H](CCC(N)=O)C(=O)O` [AYLQ] (H-AYLQ-OH), for which the IC50 was 229 ± 9.63 µM.

Regarding `CC(C)[C@H](NC(=O)[C@H](C)N)C(=O)N[C@@H](CCC(N)=O)C(=O)O` [AVQ] (H-Ala-Val-Gln-OH), the IC50 came out at 181 ± 6.17 µM.

Regarding `CC(C)C[C@H](NC(=O)[C@H](CO)NC(=O)[C@@H]1CCCN1C(=O)[C@H](CC(C)C)NC(=O)[C@@H](N)C(C)C)C(=O)N[C@@H](CC(N)=O)C(=O)O` [VLPSLN] (H-VLPSLN-OH), the IC50 came to 1246 ± 9.92 µM.

In the case of `CC(C)C[C@H](NC(=O)[C@H](CCC(N)=O)NC(=O)[C@@H](N)CC(N)=O)C(=O)O` [NQL] (H-Asn-Gln-Leu-OH), the half-maximal inhibitory concentration (IC50) came out at 705 ± 16.1 µM.

For `CC(C)C[C@H](NC(=O)[C@@H](NC(=O)[C@@H]1CCCN1C(=O)[C@H](CC(C)C)NC(=O)[C@@H](N)C(C)C)C(C)C)C(=O)N[C@@H](CO)C(=O)O` [VLPVLS] (H-VLPVLS-OH), the IC50 was 248 ± 7.15 µM.

As for `NC(=O)CC[C@H](NC(=O)[C@@H]1CCCN1C(=O)[C@@H](N)Cc1ccc(O)cc1)C(=O)O` [YPQ] (H-Tyr-Pro-Gln-OH), the IC50 is 220 ± 9.56 µM.

The term IC50 denotes the concentration that gives 50% inhibition.
